Laboratory results taken from patent publication US20100168133A1, “USE OF SUBSTITUTED QUINOLINE DERIVATIVES FOR THE TREATMENT OF DRUG RESISTANT MYCOBACTERIAL DISEASES” (priority 2004, published 2010).
Values after ≈ are worked out from the molar mass of the structure shown.

System: 73 M. tuberculosis strains (41 fully susceptible, 32 MDR)
Assay: microbe, parasite or virus in culture
Format: cell-based

`COc1nc2ccc(Br)cc2cc1[C@@H](c1ccccc1)[C@@](O)(CCN(C)C)c1cccc2ccccc12` [Compound 12, (αS,βR)-6-bromo-α-[2-(dimethylamino)ethyl]-2-methoxy-α-1-naphthalenyl-β-phenyl-3-quinolineethanol] was tested, and the “difference in MIC between fully susceptible and MDR M. tuberculosis strains” value was “No difference in MIC”, the MIC (Mycobacterium tuberculosis, 504 h, the majority of the 73 strains, agar plates, 36° C., 3 weeks) was 0.032 µg/mL (≈ 0.0576 µM) and the “concentrations at which no growth was seen” value (all the tested strains (73), agar plates, 36° C., 3 weeks) was “higher than 0.064 mg/L”.
